Patent US20230303569A1, “HETEROCYCLIC COMPOUNDS AS THERAPEUTIC AGENTS” (Arisan Therapeutics Inc., priority 2021, published 2023)
Read-outs that look alike come from different tables or passages of the source.

What was measured:
Format in all cases: cell-based
[1] = biological target: T1, human Nav1.5 (late current) (Homo sapiens, UniProt Q14524); experiment: Nav1.5 Late Current Assay (QPatch HT whole-cell patch clamp, 30 nM ATX-II); conditions: HEK293 cells stably expressing human Nav1.5, pH 7.3, late current with 30 nM ATX-II, read-out: percent inhibition hNav1.5 Late (5 uM)
T1 construct: host or cells: HEK293
T1 sequence (Q14524 whole entry): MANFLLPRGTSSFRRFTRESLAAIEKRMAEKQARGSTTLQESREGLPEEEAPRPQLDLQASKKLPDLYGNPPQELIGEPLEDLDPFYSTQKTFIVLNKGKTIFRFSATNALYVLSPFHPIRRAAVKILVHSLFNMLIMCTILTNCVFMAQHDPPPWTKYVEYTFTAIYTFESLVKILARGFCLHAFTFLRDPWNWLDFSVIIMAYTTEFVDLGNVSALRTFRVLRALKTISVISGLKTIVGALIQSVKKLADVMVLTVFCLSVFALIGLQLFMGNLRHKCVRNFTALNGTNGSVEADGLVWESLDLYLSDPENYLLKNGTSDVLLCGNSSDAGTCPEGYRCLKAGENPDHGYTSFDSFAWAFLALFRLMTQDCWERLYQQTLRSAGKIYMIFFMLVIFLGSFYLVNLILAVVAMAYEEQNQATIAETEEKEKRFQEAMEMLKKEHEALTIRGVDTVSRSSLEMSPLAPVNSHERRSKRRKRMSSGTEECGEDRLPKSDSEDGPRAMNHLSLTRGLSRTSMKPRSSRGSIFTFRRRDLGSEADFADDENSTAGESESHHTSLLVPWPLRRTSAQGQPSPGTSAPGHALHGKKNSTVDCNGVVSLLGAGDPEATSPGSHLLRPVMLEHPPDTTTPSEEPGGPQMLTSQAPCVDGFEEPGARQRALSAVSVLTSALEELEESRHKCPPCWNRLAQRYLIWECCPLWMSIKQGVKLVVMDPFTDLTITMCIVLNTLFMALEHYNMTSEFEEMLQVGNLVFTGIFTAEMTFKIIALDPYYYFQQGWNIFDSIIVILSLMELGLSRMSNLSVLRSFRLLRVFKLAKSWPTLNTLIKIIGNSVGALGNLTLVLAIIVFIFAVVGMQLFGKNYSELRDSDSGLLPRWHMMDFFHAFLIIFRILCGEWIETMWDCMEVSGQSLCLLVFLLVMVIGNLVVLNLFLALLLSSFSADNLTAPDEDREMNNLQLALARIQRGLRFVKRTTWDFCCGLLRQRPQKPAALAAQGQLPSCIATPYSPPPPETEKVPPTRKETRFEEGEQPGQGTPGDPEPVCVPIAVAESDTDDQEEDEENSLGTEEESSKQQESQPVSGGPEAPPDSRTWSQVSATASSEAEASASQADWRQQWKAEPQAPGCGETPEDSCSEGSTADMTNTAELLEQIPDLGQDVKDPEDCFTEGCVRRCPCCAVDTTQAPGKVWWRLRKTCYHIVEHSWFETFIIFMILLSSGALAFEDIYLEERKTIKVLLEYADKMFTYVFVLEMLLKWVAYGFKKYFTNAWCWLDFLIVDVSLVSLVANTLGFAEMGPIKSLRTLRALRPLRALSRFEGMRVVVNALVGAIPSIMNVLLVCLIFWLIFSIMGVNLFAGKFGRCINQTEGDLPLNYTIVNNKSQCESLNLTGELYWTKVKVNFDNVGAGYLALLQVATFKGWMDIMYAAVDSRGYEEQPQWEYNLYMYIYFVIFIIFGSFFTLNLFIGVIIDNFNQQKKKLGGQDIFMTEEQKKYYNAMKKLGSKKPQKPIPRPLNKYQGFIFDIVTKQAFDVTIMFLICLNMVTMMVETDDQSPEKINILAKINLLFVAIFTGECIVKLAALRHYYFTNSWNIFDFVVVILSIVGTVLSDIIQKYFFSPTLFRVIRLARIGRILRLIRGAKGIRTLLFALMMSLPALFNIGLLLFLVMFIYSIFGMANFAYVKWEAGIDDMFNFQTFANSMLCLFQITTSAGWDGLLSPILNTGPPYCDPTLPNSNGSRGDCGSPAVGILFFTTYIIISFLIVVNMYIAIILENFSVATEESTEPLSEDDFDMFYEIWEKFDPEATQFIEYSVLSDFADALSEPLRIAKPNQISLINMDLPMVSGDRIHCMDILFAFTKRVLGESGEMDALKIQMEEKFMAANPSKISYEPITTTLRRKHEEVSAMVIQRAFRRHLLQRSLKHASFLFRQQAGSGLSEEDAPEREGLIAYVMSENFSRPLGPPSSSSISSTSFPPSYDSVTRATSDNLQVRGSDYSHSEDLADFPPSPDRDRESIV
Experimental: (§1) In vitro Na+ Current Inhibition Assays were performed by Eurofins Discovery (St Charles, MO). All compound functional activity determinations were determined through electrophysiological analyses of Na+ currents in HEK293 cells expressing a stably transfected Na+ channel (human Nav1.1, 1.2, 1.3, 1.5, 1.6, 1.7, or 1.8). After harvesting with Accutase cells are maintained in serum free medium at room temperature prior to electrophysiological recording utilizing the QPatch HT automated whole-cell patch-clamp platform (Sophion Bioscience, Woburn MA). Stock solution aliquots of the test compound are prepared in DMSO at 300× the final assay concentrations, and stored at −20° C. until the day of assay. On the day of the assay, an aliquot of the stock solution is thawed and diluted into external solution (137 mM NaCl, 4 mM KCl, 1 mM MgCl2, 1.8 mM CaCl2, 10 mM HEPES, 10 mM Glucose (pH 7.3, titrated with 10M NaOH) to make final test concentrations. A final concentration of 0.33% DMSO is maintained for each concentration of the assay compounds. Internal solution for recordings of Na+ consist consists of 100 mM CsF, 45 mM CsCl, 5 mM NaCl, 10 mM HEPES, 5 mM EGTA (pH 7.3, titrated with 1M CsOH).
Onset and steady state induction of late Nav1.5 current was measured using a pulse pattern, repeated every 5 sec, consisting of a hyperpolarizing pulse to −120 mV for a 200 ms duration, depolarization to −15 mV amplitude for a 40 ms duration, followed by step to 40 mV for 200 ms and finally a 100 ms ramp (1.2 V/s) to a holding potential of −80 mV. Each concentration of compound was applied for 5 minutes. The assay was performed at room temperature. After establishing vehicle control condition, all further addition of external solutions contain 30 nM ATX-II to activate late currents. Each concentration of compound was also co-applied with 30 nM ATXII to estimate the Nav1.5 late current inhibition. […]. ATXII was used as the agonist positive control and was tested concurrently with the test compound. Ranolazine was used as the positive control and was tested concurrently with the test compound.
Nav1.5 late current was measured as the total charge flowing through the Nav1.5 channels (area under the curve) 5 ms after the Nav1.5 peak current till the end of the test pulse and as charge at their maxima during the ramp. Individual cell results were normalized to their respective vehicle control and the results were averaged. The sodium current was assessed in 30 nM ATXII as vehicle control conditions and then at the end of each five (5) minute compound application in the presence of 30 nM ATXII. Individual cell result was normalized to 30 nM ATXII vehicle control amplitude and the mean±SEM calculated for each compound concentration.

[2] = biological target: T2, human Nav1.6 (Homo sapiens, UniProt Q9UQD0); experiment: Two pulse assay protocol, Nav1.6; conditions: 5 uM, peak current
T2 construct: host or cells: HEK293
Experimental: as §1
(§2) Two pulse assay protocol for human Nav1.1, 1.2, 1.3, 1.5, 1.6, 1.7, and 1.8 channels. Mammalian cultured cells expressing the indicated human Nav1.1, 1.2, 1.3, 1.5, 1.6, 1.7 or 1.8 channels were assayed using the The QPatch HT (Sophion Bioscience, Woburn MA) automated system with an intracellular solution (mM) of 100 CsF, 45 CsCl, 5 NaCl, 10 HEPES, 5 EGTA (pH 7.3, titrated with 1M CsOH) and extracellular solution (mM) of 137 NaCl, 4 KCl, 1 MgCl2, 1.8 CaCl2, 10 HEPES, 10 Glucose (pH 7.3, titrated with 10M NaOH). Onset and steady state block of the sodium channel was measured using a pulse pattern, repeated every 20 seconds (s) from a holding potential of −120 mV for 100 ms, and then pulsed to 0 mV for 500 ms to inactivate the Na channels and facilitate inactivated state-dependent binding of the test compounds. The cell membranes were then stepped back to −120 mV for 10 ms to recover from inactivation into resting or closed state (channels with test compound bound to them will not recover from inactivation and will not open) before stepping to 0 mV for 50 ms (pulse 2) to measure Na channels that are available to open. Peak current was measured during the step to 0 mV at pulse 1 and 2 to measure tonic and state-dependent inhibition. Compound activities were assessed by dividing post current amplitude (at the end of each five (5) minute compound application) by the vehicle control amplitude and the mean calculated for each compound concentration. Tetracaine was used as a positive control and was tested concurrently with the test compounds. Current amplitudes in excess of 200 pA at the control stage were analyzed. The amplitude of the current was calculated by measuring the difference between the peak inward current on stepping to 0 mV (i.e. peak of the current) and remaining current at the end of the step. The current was assessed in vehicle control conditions and then at the end of each five (5) minute compound application.

[3] = biological target: T3, human Nav1.5 (pulse 1, tonic inhibition) (Homo sapiens, UniProt Q14524); experiment: Two pulse assay protocol, Nav1.5; conditions: HEK293 cells stably expressing human Nav1.5, pH 7.3, peak current, pulse 1 (tonic), read-out: percent inhibition hNav1.5, Pulse 1 (5 uM)
T3 construct: host or cells: HEK293
Experimental: as §1, §2

[4] = biological target: T4, human Nav1.5 (pulse 2, state-dependent inhibition) (Homo sapiens, UniProt Q14524); experiment: Two pulse assay protocol, Nav1.5; conditions: HEK293 cells stably expressing human Nav1.5, pH 7.3, peak current, pulse 2 (state-dependent), read-out: percent inhibition hNav1.5, Pulse 2 (5 uM)
T4 construct: host or cells: HEK293
T4 sequence (Q14524 whole entry): as above
Experimental: as §1, §2

[5] = biological target: T5, human Nav1.7 (Homo sapiens, UniProt Q15858); experiment: Two pulse assay protocol, Nav1.7; conditions: peak current
T5 construct: host or cells: HEK293
Experimental: as §1, §2

[6] = biological target: T6, human Nav1.8 (Homo sapiens, UniProt Q9Y5Y9); experiment: Two pulse assay protocol, Nav1.8; conditions: peak current
T6 construct: host or cells: HEK293
Experimental: as §1, §2

[7] = pulse 1 (tonic), read-out: percent inhibition hNav1.6, Pulse 1 (5 uM)
[8] = pulse 2 (state-dependent), read-out: percent inhibition hNav1.6, Pulse 2 (5 uM)
[9] = pulse 1 (tonic), read-out: percent inhibition hNav1.7, Pulse 1 (5 uM)
[10] = pulse 2 (state-dependent), read-out: percent inhibition hNav1.7, Pulse 2 (5 uM)
[11] = pulse 1 (tonic), read-out: percent inhibition hNav1.8, Pulse 1 (5 uM)
[12] = pulse 2 (state-dependent), read-out: percent inhibition hNav1.8, Pulse 2 (5 uM)

inhibition at 5 µM [2, 7] [%] | inhibition at 5 µM [2, 8] [%] | inhibition at 5 µM [5, 9] [%] | inhibition at 5 µM [5, 10] [%] | inhibition at 5 µM [6, 11] [%] | inhibition at 5 µM [6, 12] [%] | SMILES | inhibition at 5 min, 5 uM [1] [%] | inhibition at 5 min, 5 µM [3] [%] | inhibition at 5 min, 5 µM [4] [%]
 |  |  |  |  |  | CC(C)Oc1ccc(-c2cnc3ccc(-c4ccc(OC(F)F)cc4)cn23)cc1 [Example C4, 6-[4-(difluoromethoxy)phenyl]-3-[4-(propan-2-yloxy)phenyl]imidazo[1,2-a]pyridine] | > 90 |  | 
 |  |  |  |  |  | CC(C)Oc1ccc(-c2cnc3ccc(-c4ccc(C5(N)CC5)cc4)cn23)cc1 [Example C15, 1-(4-{3-[4-(propan-2-yloxy)phenyl]imidazo[1,2-a]pyridin-6-yl}phenyl)cyclopropan-1-amine] | < 50 |  | 
 |  |  |  |  |  | CC(C)Oc1ccc(-c2cnc3ccc(-c4ccc(C(N)=O)cc4)cn23)cc1 [Example C16, 4-{3-[4-(propan-2-yloxy)phenyl]imidazo[1,2-a]pyridin-6-yl}benzamide] | < 50 |  | 
 |  |  |  |  |  | CC(C)Oc1ccc(-c2cnc3ccc(-c4cnn(C5CC5)c4)cn23)cc1 [Example C17, 1-cyclopropyl-4-{3-[4-(propan-2-yloxy)phenyl]imidazo[1,2-a]pyridin-6-yl}-1H-pyrazole] | < 50 |  | 
< 50 | > 90 | < 50 | 50 to 90 |  |  | CC(C)Oc1ccc(-c2cnc3ccc(-c4ccc(OC(C)C)c(F)c4)cn23)cc1 [Example C24, 6-[3-fluoro-4-(propan-2-yloxy)phenyl]-3-[4-(propan-2-yloxy)phenyl]imidazo[1,2-a]pyridine] |  | < 50 | > 90
 |  |  |  |  |  | CC(C)Oc1ccc(-c2ccc3ncc(-c4cccc(OC(C)C)c4)n3c2)cc1 [Example C35, 3-[3-(propan-2-yloxy)phenyl]-6-[4-(propan-2-yloxy)phenyl]imidazo[1,2-a]pyridine] | > 90 |  | 
 |  |  |  |  |  | CC(C)Oc1ccc(-c2ccc3ncc(-c4ccc(OC(F)F)cc4)n3c2)cc1 [Example C40, 3-[4-(difluoromethoxy)phenyl]-6-[4-(propan-2-yloxy)phenyl]imidazo[1,2a]pyridine] | < 50 |  | 
 |  |  |  |  |  | COc1cc2ncc(-c3ccc(OC(C)C)cc3)n2cc1-c1ccc(OC(C)C)cc1 [Example C49, 7-methoxy-3,6-bis[4-(propan-2-yloxy)phenyl]imidazo[1,2-a]pyridine] | < 50 |  | 
 |  |  |  |  |  | CC(C)Oc1ccc(-c2cn3c(-c4ccc(OC(C)C)cc4)cnc3cc2C#N)cc1 [Example C52, 3,6-bis(4-isopropoxyphenyl)imidazo[1,2-a]pyridine-7-carbonitrile] | < 50 |  | 
 |  |  |  |  |  | Cc1cc2ncc(-c3ccc(C(C)(C)O)cc3)n2cc1-c1ccc(OC(C)C)cc1 [Example C56, 2-(4-(6-(4-isopropoxyphenyl)-7-methylimidazo[1,2-a]pyridin-3-yl)phenyl)propan-2-ol] | < 50 |  | 
< 50 | < 50 |  |  | < 50 | < 50 | FC(F)(F)Oc1ccc(-c2cnc3ccc(C(F)(F)F)cn23)cc1 [Example C60, 3-(4-(trifluoromethoxy)phenyl)-6-(trifluoromethyl)imidazo[1,2-a]pyridine] |  |  | 
< 50 | < 50 |  |  | < 50 | < 50 | CC(C)Oc1ccc(-c2cnc3ccc(C(F)(F)F)cn23)cc1 [Example C61, 3-(4-isopropoxyphenyl)-6-(trifluoromethyl)imidazo[1,2-a]pyridine] |  |  | 
 |  | < 50 | < 50 | < 50 | < 50 | CS(=O)(=O)NC(=O)c1ccn2c(-c3ccc(OC(F)(F)F)cc3)cnc2c1 [Example C66, N-(methylsulfonyl)-3-(4-(trifluoromethoxy)phenyl)imidazo[1,2-a]pyridine-7-carboxamide] |  | < 50 | < 50
< 50 | > 90 | < 50 | > 90 |  |  | Cc1cc(-c2cnc3ccc(-c4ccc(OC(C)C)cc4)cn23)cnc1OC(C)C [Example C71, 3-(6-isopropoxy-5-methylpyridin-3-yl)-6-(4-isopropoxyphenyl)imidazo[1,2-a]pyridine] |  | < 50 | > 90
< 50 | > 90 | < 50 | > 90 |  |  | CC(C)Oc1ccc(-c2ccc3ncc(-c4ccc(C(C)(C)C)cc4)n3c2)cc1 [Example C87, 3-(4-(tert-butyl)phenyl)-6-(4-isopropoxyphenyl)imidazo[1,2-a]pyridine] |  | < 50 | > 90
< 50 | > 90 | < 50 | > 90 |  |  | CC(C)Oc1ccc(-c2ccc3ncc(-c4ccc(C(C)(C)C)nc4)n3c2)cc1 [Example C89, 3-(6-(tert-butyl)pyridin-3-yl)-6-(4-isopropoxyphenyl)imidazo[1,2-a]pyridine] |  | < 50 | 50 to 90

SMILES | inhibition at 5 µM [2, 7] [%] | inhibition at 5 µM [2, 8] [%] | inhibition at 5 µM [5, 9] [%] | inhibition at 5 µM [5, 10] [%] | inhibition at 5 µM [6, 11] [%] | inhibition at 5 µM [6, 12] [%] | inhibition at 5 min, 5 uM [1] [%] | inhibition at 5 min, 5 µM [3] [%] | inhibition at 5 min, 5 µM [4] [%]
CS(=O)(=O)NC(=O)c1cc2ncc(-c3ccc(OC(F)(F)F)cc3)n2cc1-c1ccc(OC(F)(F)F)cc1 [Example C67, N-(methylsulfonyl)-3,6-bis(4-(trifluoromethoxy)phenyl)imidazo[1,2-a]pyridine-7-carboxamide] |  |  | < 50 | < 50 | < 50 | < 50 |  | < 50 | < 50
CC(C)Oc1ccc(-c2ccc3ncc(-c4ccc(OC(C)(C)C)nc4)n3c2)cc1 [Example C90, 3-(6-(tert-butoxy)pyridin-3-yl)-6-(4-isopropoxyphenyl)imidazo[1,2-a]pyridine] | < 50 | > 90 | < 50 | > 90 |  |  |  | < 50 | > 90
